Reference: US4206215A, “Antimicrobial bis-[4-(substituted-amino)-1-pyridinium]alkanes” (Sterling Drug Inc., priority 1977, dated 1980)
Like-named read-outs stand apart in the source and are kept apart here.

Key:
[1] = system: Streptococcus mutans OMZ-61; assay: Dental plaque-preventive effectiveness in the presence of sterile human saliva (50%); format: cell-based; conditions: 50% sterile human saliva
Method: The dental plaque preventive activity of certain of the compounds of the present invention was determined by measuring the ability of these compounds to inhibit the production of dental plaque by Streptococcus mutans OMZ-61 as follows:
A culture medium for the plaque-producing Streptococcus mutans OMZ-61 containing 1.5 g. of BBL beef extract, 5 g. of sodium chloride, 10 g. of dehydrated trypticase, 5 g. of sucrose and sufficient distilled water to give a total volume of 1000 ml. is adjusted to pH 7.0 and sterilized by membrane filtration. The medium is dispensed aseptically in 10-ml. aliquots into 150×16 mm. test tubes and stored at refrigeration temperature until used.
Two concentrations of the compound to be tested are prepared by dissolving 100 mg. of the compound in 1 ml. of distilled water with the aid of sufficient 0.1 N sodium hydroxide, 10% dimethylsulfoxide or 10% N,N-dimethylformamide and diluting the resulting solution to 10 ml. with distilled water. This 1.0% solution and a 1:10 dilution in distilled water (0.1%) are sterilized by membrane filtration before use.
A sterile piece of plaque-free natural tooth enamel or synthetic hydroxylapatite is suspended in each concentration of compound for two 1-minute periods, each followed by a 1-minute air drying period. Each piece is then suspended and agitated for 5 minutes in individual test tubes containing sterile distilled water (rinse). They are then suspended in 10 ml. of liquid beef extract medium to which has been added 0.3 ml. of a 24-hr. anaerobic culture of Streptococcus mutans. The tubes containing the "treated" hydroxylapatite and the Streptococcus mutans are then incubated anaerobically at 37° C. for 24 hours. The same process of two 1-minute soaks in the solution of compound, each followed by 1 minute of air drying and the final 5-minute rinse is repeated before once again suspending the hydroxylapatite in a fresh tube containing 10 ml. of beef extract medium and 0.3 ml. of inoculum. At the end of the second 24-hour period, each piece of hydroxylapatite is rinsed for 1 minute in 3 successive tubes of distilled water. These are then suspended for 1 minute in a solution of F, D & C Red No. 3 dye. This staining procedure is used in order to identify more easily the development of plaque after the 48-hour period of exposure to the plaque-producing organism. The staining period is followed by another 10-second rinse to remove excess dye. Any plaque formation stains a brilliant pink. […] Active compounds are tested at successively lower doses in order to determine the minimum effective concentration. On some occasions, the interference of plaque production is caused by the inhibition of growth of the organism in the culture medium because the compound has been leached from the hydroxylapatite to produce an antibacterial level in the medium. When this occurs, the compound is tested at lower concentrations until the growth of the organism in the surrounding medium is equal to that in the nonmedicated control culture. Plaque may or may not be formed at these lower concentrations.
Dental plaque-preventive effectiveness in the presence of sterile human saliva (50%) was determined for representative examples.

K. pneum. 39645 = assay: In vitro antibacterial activity, MIC (modified Autotiter method); format: cell-based, Klebsiella pneumoniae; conditions: 18-20 hours at 37° C.; for MIC: Klebsiella pneumoniae, 20 h, read-out: MIC K. pneum. 39645
Outline: (§1)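 Double-strength inoculated semisynthetic broth containing glucose was dispensed onto compound dilutions. These dilutions, twofold each, were prepared in sterile water by the Autotiter from a 1,000 mcg./ml. solution, covering final levels of 500 to 0.06 mcg./ml.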

E. coli 100/B22 = assay: as above; format: cell-based, Escherichia coli; conditions: for MIC: Escherichia coli, 100/B22, 20 h, read-out: MIC E. coli 100/B22, 18-20 hours at 37° C.
Outline: as §1

E. coli Vogel = assay: as above; format: cell-based, Escherichia coli; conditions: 18-20 hours at 37° C.; for MIC: Escherichia coli, 20 h, read-out: MIC E. coli Vogel
Outline: as §1

E. coli AB1932-1 = assay: as above; format: cell-based, Escherichia coli; conditions: 18-20 hours at 37° C.; for MIC: Escherichia coli, AB19321, 20 h, read-out: MIC E. coli AB1932-1
Outline: as §1

Ps. aerug. MGH-2 = assay: as above; format: cell-based, Pseudomonas aeruginosa; conditions: 18-20 hours at 37° C.; for MIC: Pseudomonas aeruginosa, 20 h, read-out: MIC Ps. aerug. MGH-2
Outline: as §1

T. menta. 9129 = assay: In vitro antifungal activity, MIC (modified Autotiter method); format: cell-based, Trichophyton mentagrophytes; conditions: 18-20 hours at 37° C.; for MIC: Trichophyton mentagrophytes, 20 h, read-out: MIC T. menta. 9129
Outline: as §1

S. Aureus Smith = assay: In vitro antibacterial activity, MIC (modified Autotiter method); format: cell-based, Staphylococcus aureus; conditions: 18-20 hours at 37° C.; for MIC: Staphylococcus aureus, 20 h, read-out: MIC S. Aureus Smith
Outline: as §1

A. niger 16404 = assay: In vitro antifungal activity, MIC (modified Autotiter method); format: cell-based, Aspergillus niger; conditions: 18-20 hours at 37° C.; for MIC: Aspergillus niger, 16404, 20 h, read-out: MIC A. niger 16404
Outline: as §1

P. mirab. MGH-1 = assay: In vitro antibacterial activity, MIC (modified Autotiter method); format: cell-based, Proteus mirabilis; conditions: 18-20 hours at 37° C.; for MIC: Proteus mirabilis, 20 h, read-out: MIC P. mirab. MGH-1
Outline: as §1

[2] = system: young adult male Swiss-Webster strain albino mice; assay: Acute oral toxicity (ALD50); format: in vivo
Method: (§2) The acute oral toxicity (ALD50) of several representative examples was determined as follows: Groups of 3 young adult male Swiss-Webster strain albino mice were fasted approximately 4 hours before medication and then medicated once orally by stomach tube.

[3] = Acute oral toxicity (ALD50); format: in vivo; conditions: mouse, in vivo, po, mice, read-out: 7-Day ALD50
Method: as §2

C. albicans 10231 = assay: In vitro antifungal activity, MIC (modified Autotiter method); format: cell-based, Candida albicans; conditions: 18-20 hours at 37° C.; for MIC: Candida albicans, 10231, 20 h, read-out: MIC C. albicans 10231
Outline: as §1

C. albicans Wisc. = assay: as above; format: cell-based, Candida albicans; conditions: 18-20 hours at 37° C.; for MIC: Candida albicans, 20 h, read-out: MIC C. albicans Wisc.
Outline: as §1

S. pyogen. C203 = assay: In vitro antibacterial activity, MIC (modified Autotiter method); format: cell-based, Streptococcus pyogenes; conditions: 18-20 hours at 37° C.; for MIC: Streptococcus pyogenes, 20 h, read-out: MIC S. pyogen. C203
Outline: as §1

[4] = system: Herpes simplex type 2 virus; assay: Virucidal activity in vitro (plaque inhibition test); format: cell-based; conditions: 2 mg. of test compound on growth medium
Method: Virucidal activity of representative examples against Herpes simplex type 2 virus was determined in vitro employing a procedure similar to the plaque inhibition test for detection of specific inhibitors of DNA-containing viruses published by E. C. Herrmann, Jr., Proc. Soc. Exp. Biol. Med. 107, 142 (1961) wherein 2 mg. of the test compound was placed on the surface of the growth medium.

[5] = 125 mg/kg oral, aqueous solution
[6] = 250 mg/kg oral, aqueous solution
[7] = 500 mg/kg oral, aqueous solution
[8] = 1000 mg/kg oral, aqueous solution
[9] = 125 mg/kg oral, suspension in 1% G.T.
[10] = 250 mg/kg oral, suspension in 1% G.T.
[11] = 500 mg/kg oral, suspension in 1% G.T.
[12] = 1000 mg/kg oral, suspension in 1% G.T.
[13] = suspension in 1% gum tragacanth

| SMILES | MIC (K. pneum. 39645) | MIC (E. coli 100/B22) | MIC (E. coli Vogel) | MIC (E. coli AB1932-1) | MIC (Ps. aerug. MGH-2) | MIC (T. menta. 9129) | MIC (S. Aureus Smith) | MIC (P. mirab. MGH-1) | MIC (C. albicans 10231) | MIC (C. albicans Wisc.) | MIC (S. pyogen. C203) | Dental Plaque Preventive Activity in 50% saliva Minimum Effective Conc. (%) [1] | Mortality 7 Days [2, 9] | Mortality 24 Hrs [2, 9] | Mortality 7 Days [2, 10] | Mortality 24 Hrs [2, 10] | Mortality 7 Days [2, 11] | Mortality 24 Hrs [2, 11] | Mortality 7 Days [2, 12] | Mortality 24 Hrs [2, 12] | further results |
| --- | --- | --- | --- | --- | --- | --- | --- | --- | --- | --- | --- | --- | --- | --- | --- | --- | --- | --- | --- | --- | --- |
| CCCCCCCCNc1cc[n+](CCCCCCCCCC[n+]2ccc(NCCCCCCCC)cc2)cc1 [10A,B, 1,10-bis-[4-(octylamino)-1-pyridinium]decane dichloride] | 1.95 µg/mL | 1 µg/mL | 1.95 µg/mL | 1 µg/mL | 3.9 µg/mL | 1.95 µg/mL | 0.5 µg/mL | 3.9 µg/mL | 1.95 µg/mL | 1.95 µg/mL | 1 µg/mL | – | – | – | – | – | – | – | – | – | Dental Plaque Preventive Activity in 50% saliva Minimum Effective Conc. (%) ([1]; listed as 10 A, B): 0.005%; MIC A. niger 16404 (A. niger 16404): 7.8 µg/mL; Mortality 7 Days [2, 5]: 0/3; Mortality 24 Hrs [2, 5]: 0/3; Mortality 7 Days [2, 6]: 0/3; Mortality 24 Hrs [2, 6]: 0/3; Mortality 7 Days [2, 7]: 0/3; Mortality 24 Hrs [2, 7]: 0/3; Mortality 7 Days [2, 8]: 0/3; Mortality 24 Hrs [2, 8]: 0/3; LD50 at 168 h ([3]; aqueous solution): > 1000 mg/kg |
| CCCCCCCCNc1cc[n+](CCCCCC[n+]2ccc(NCCCCCCCC)cc2)cc1 [Example 14] | – | – | – | – | – | – | – | – | – | – | – | 0.1% | 0/3 | 0/3 | 0/3 | 0/3 | 0/3 | 0/3 | 1/3 | 0/3 | MIC K. pneum. 39645 (K. pneum. 39645): 1.95 µg/mL; MIC E. coli 100/B22 (E. coli 100/B22; 18-20 hours at 37° C.): 0.5 µg/mL; MIC E. coli Vogel (E. coli Vogel): 1.0 µg/mL; MIC E. coli AB1932-1 (E. coli AB1932-1): 0.5 µg/mL; MIC Ps. aerug. MGH-2 (Ps. aerug. MGH-2): 31.3 µg/mL; MIC T. menta. 9129 (T. menta. 9129): 1.0 µg/mL; MIC S. Aureus Smith (S. Aureus Smith): 0.25 µg/mL; MIC A. niger 16404 (A. niger 16404): 15.6 µg/mL; MIC P. mirab. MGH-1 (P. mirab. MGH-1): 15.6 µg/mL; LD50 at 168 h [3, 13]: > 1000 mg/kg; MIC C. albicans 10231 (C. albicans 10231): 1.95 µg/mL; MIC C. albicans Wisc. (C. albicans Wisc.): 1.95 µg/mL; MIC S. pyogen. C203 (S. pyogen. C203): 0.5 µg/mL |
| CCCCCCCCNc1cc[n+](CCCCCCCCC[n+]2ccc(NCCCCCCCC)cc2)cc1 [Example 44A, 1,9-bis-[4-(octylamino)-1-pyridinium]nonane dibromide] | 1.95 µg/mL | 1 µg/mL | 1 µg/mL | 1 µg/mL | 3.9 µg/mL | 1 µg/mL | 1 µg/mL | 15.6 µg/mL | 1 µg/mL | 1.95 µg/mL | 0.5 µg/mL | 0.005% | 0/3 | 0/3 | 0/3 | 0/3 | 0/3 | 0/3 | 0/3 | 0/3 | MIC (A. niger 16404): 3.9 µg/mL; LD50 at 168 h [3, 13]: > 1000 mg/kg |
| CCCCC(CC)CNc1cc[n+](CCCCCCCC[n+]2ccc(NCC(CC)CCCC)cc2)cc1 (centres unmarked) [Example 56, 1,8-bis-[4-(2-ethylhexylamino)-1-pyridinium]octane dibromide] | 7.8 µg/mL | 1.95 µg/mL | 3.9 µg/mL | 0.98 µg/mL | 125 µg/mL | 1.95 µg/mL | 0.31 µg/mL | 125 µg/mL | 3.9 µg/mL | 3.9 µg/mL | 0.16 µg/mL | 0.1% | 0/3 | 0/3 | 0/3 | 0/3 | 0/3 | 0/3 | 1/3 | 1/3 | Virucidal activity against Herpes simplex type 2 virus [4]: active; MIC (A. niger 16404): 15.6 µg/mL; LD50 at 168 h [3, 13]: > 1000 mg/kg |
